# Assay results taken from PubChem BioAssay AID330 (DTP/NCI, 2004).
# Values joined by “and” are separate entries in the source; they are usually repeats but may differ in a detail not shown here. Equal entries are not always repeated. Inconclusive results and toxic doses are left out.
# System: P388 leukemia ip, CD2F1 mice, survival T/C
# Assay: NCI In Vivo Anticancer Drug Screen. Data for tumor model P388 Leukemia (intraperitoneal) in CD2F1 (CDF1) mice
# Settings: endpoint: median survival time, higher = longer survival
# Procedure, shortened: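 Mice carrying the transplanted tumor received test compound or vehicle. Survival was recorded in each group, and the value is the treated-group measurement divided by that of the vehicle-treated control group.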
# [1] = dose: 12.5 mg/kg/injection, schedule: Q01DX005 (ip), vehicle: saline with Tween-80
# [2] = dose: 25.0 mg/kg/injection, schedule: Q01DX005 (ip), vehicle: saline with Tween-80
# [3] = dose: 50.0 mg/kg/injection, schedule: Q01DX005 (ip), vehicle: saline with Tween-80
# [4] = dose: 200.0 mg/kg/injection, schedule: Q01DX005 (ip), vehicle: saline with Tween-80
# [5] = dose: 50.0 mg/kg/injection, schedule: Q01DX005 (ip), vehicle: Klucel (hydroxypropylcellulose) (HPC)
# [6] = dose: 100.0 mg/kg/injection, schedule: Q01DX005 (ip), vehicle: Klucel (hydroxypropylcellulose) (HPC)
# [7] = dose: 200.0 mg/kg/injection, schedule: Q01DX005 (ip), vehicle: Klucel (hydroxypropylcellulose) (HPC)
# [8] = dose: 50.0 mg/kg/injection, schedule: Q01DX009 (ip), vehicle: Klucel (hydroxypropylcellulose) (HPC)
# [9] = dose: 100.0 mg/kg/injection, schedule: Q01DX009 (ip), vehicle: Klucel (hydroxypropylcellulose) (HPC)
# [10] = dose: 5.0 mg/kg/injection, schedule: Q01DX009 (ip), vehicle: saline
# [11] = dose: 100.0 mg/kg/injection, schedule: Q01DX005 (ip), vehicle: saline with Tween-80
# [12] = dose: 12.5 mg/kg/injection, schedule: Q01DX005 (ip), vehicle: Klucel (hydroxypropylcellulose) (HPC)
# [13] = dose: 25.0 mg/kg/injection, schedule: Q01DX005 (ip), vehicle: Klucel (hydroxypropylcellulose) (HPC)
# [14] = dose: 60.0 mg/kg/injection, schedule: Q01DX005 (ip), vehicle: saline with Tween-80
# [15] = dose: 120.0 mg/kg/injection, schedule: Q01DX005 (ip), vehicle: saline with Tween-80
# [16] = dose: 50.0 mg/kg/injection, schedule: Q01DX009 (ip), vehicle: saline
smiles,measurement,setting,value
OCC(O)C(O)C(O)C(O)c1nnc2n[nH]c(=S)n2n1 (stereo not drawn),T/C,"dose: 25.0 mg/kg/injection, schedule: Q01DX001 (ip), vehicle: Klucel (hydroxypropylcellulose) (HPC)",100 % of control
same,T/C,"dose: 50.0 mg/kg/injection, schedule: Q01DX001 (ip), vehicle: Klucel (hydroxypropylcellulose) (HPC)",98 % of control
same,T/C,"dose: 100.0 mg/kg/injection, schedule: Q01DX001 (ip), vehicle: Klucel (hydroxypropylcellulose) (HPC)",100 % of control
CN(C)c1ccc(C2(c3ccccc3)NNC(=O)c3ccccc32)cc1 (stereo not drawn),T/C,[1],92 % of control
same,T/C,[2],88 % of control
same,T/C,[3],88 % of control
same,T/C,[4],86 % of control
CCOC(=O)C(/C=N\c1[nH]ncc1C#N)=C(/C(=O)OCC)c1ccc(O)cc1,T/C,[5],110 % of control
same,T/C,[6],105 % of control
same,T/C,[7],105 % of control
Cn1c(CO)cnc1-c1ccccc1,T/C,[8],99 % of control
same,T/C,[9],100 % of control
same,T/C,"dose: 200.0 mg/kg/injection, schedule: Q01DX009 (ip), vehicle: Klucel (hydroxypropylcellulose) (HPC)",97 % of control
O=C(CC(=O)CC(O)(C(F)(F)F)C(F)(F)F)CC(O)(C(F)(F)F)C(F)(F)F,T/C,"dose: 1.25 mg/kg/injection, schedule: Q04DX003 (ip), vehicle: saline",100 % of control
same,T/C,"dose: 2.5 mg/kg/injection, schedule: Q04DX003 (ip), vehicle: saline",95 % of control
COc1c2c(c(C)c3ccc4ccccc4c13)CCN=C2,T/C,[5],103 % of control
same,T/C,[6],102 % of control
same,T/C,[7],113 % of control
COc1cc2cc[n+](C)c(Cc3ccc(Oc4cc(Cc5c6cc(OC)c(OC)cc6cc[n+]5C)ccc4OC)cc3)c2cc1OC,T/C,"dose: 2.5 mg/kg/injection, schedule: Q01DX009 (ip), vehicle: saline",98 % of control
same,T/C,[10],99 % of control
same,T/C,"dose: 10.0 mg/kg/injection, schedule: Q01DX009 (ip), vehicle: saline",88 % of control
CCOCCN1CCN(CCCN2c3ccccc3Sc3ccc(C(F)(F)F)cc32)CC1,T/C,"dose: 6.25 mg/kg/injection, schedule: Q04DX003 (ip), vehicle: saline",104 % of control and 88 % of control
same,T/C,"dose: 12.5 mg/kg/injection, schedule: Q04DX003 (ip), vehicle: saline",110 % of control and 118 % of control
same,T/C,"dose: 25.0 mg/kg/injection, schedule: Q04DX003 (ip), vehicle: saline",115 % of control
CC(CO)CCC1OC2CC3C4CC=C5CC(O)CCC5(C)C4CCC3(C)C2C1C (stereo not drawn),T/C,"dose: 2.25 mg/kg/injection, schedule: Q01DX005 (ip), vehicle: Klucel (hydroxypropylcellulose) (HPC)",98 % of control
same,T/C,"dose: 4.5 mg/kg/injection, schedule: Q01DX005 (ip), vehicle: Klucel (hydroxypropylcellulose) (HPC)",100 % of control
same,T/C,"dose: 9.0 mg/kg/injection, schedule: Q01DX005 (ip), vehicle: Klucel (hydroxypropylcellulose) (HPC)",88 % of control
same,T/C,"dose: 36.0 mg/kg/injection, schedule: Q01DX005 (ip), vehicle: Klucel (hydroxypropylcellulose) (HPC)",87 % of control
CC(=O)OCC1OC(Nc2[nH]c(=O)[nH]c(=O)c2N=O)C(OC(C)=O)C(OC(C)=O)C1OC(C)=O (stereo not drawn),T/C,"dose: 60.0 mg/kg/injection, schedule: Q01DX005 (ip), vehicle: saline",111 % of control
same,T/C,"dose: 120.0 mg/kg/injection, schedule: Q01DX005 (ip), vehicle: saline",103 % of control
same,T/C,"dose: 240.0 mg/kg/injection, schedule: Q01DX005 (ip), vehicle: saline",103 % of control
CCCCCCCCCCCCCC(=O)Oc1ccc[nH]c1=O,T/C,[3],91 % of control
same,T/C,[11],90 % of control
same,T/C,[4],90 % of control
same,T/C,"dose: 400.0 mg/kg/injection, schedule: Q01DX005 (ip), vehicle: saline with Tween-80",98 % of control
CC(=O)C1=CC[C@H]2[C@@H]3C=CC4=CC(=O)CC[C@]4(C)[C@H]3C[C@@H](O)[C@]12C,T/C,[12],99 % of control
same,T/C,[13],96 % of control
same,T/C,[5],107 % of control
same,T/C,[6],99 % of control
same,T/C,[7],106 % of control
c1ccc2c(c1)[nH]c1c2nc2ccccn21,T/C,[13],105 % of control and 107 % of control
same,T/C,[5],105 % of control and 108 % of control and 113 % of control
same,T/C,[6],124 % of control
C#CCCCCCC#CCCCCCC#CC(=O)O,T/C,"dose: 100.0 mg/kg/injection, schedule: Q01DX001 (ip), vehicle: saline",104 % of control
same,T/C,"dose: 200.0 mg/kg/injection, schedule: Q01DX001 (ip), vehicle: saline",101 % of control
CC(C)C(Br)C(Br)c1ccccc1 (stereo not drawn),T/C,"dose: 50.0 mg/kg/injection, schedule: Q01DX009 (ip), vehicle: saline with Tween-80",100 % of control
same,T/C,"dose: 100.0 mg/kg/injection, schedule: Q01DX009 (ip), vehicle: saline with Tween-80",104 % of control
same,T/C,"dose: 200.0 mg/kg/injection, schedule: Q01DX009 (ip), vehicle: saline with Tween-80",104 % of control
Nc1nc(N)n(N)c(=S)n1,T/C,"dose: 50.0 mg/kg/injection, schedule: Q04DX003 (ip), vehicle: saline with Tween-80",96 % of control
same,T/C,"dose: 100.0 mg/kg/injection, schedule: Q04DX003 (ip), vehicle: saline with Tween-80",106 % of control
COc1ccccc1C1=[N+]([O-])C(C)(C)C(c2ccccc2)C1 (stereo not drawn),T/C,"dose: 100.0 mg/kg/injection, schedule: Q04DX002 (ip), vehicle: Klucel (hydroxypropylcellulose) (HPC)",104 % of control
same,T/C,"dose: 200.0 mg/kg/injection, schedule: Q04DX002 (ip), vehicle: Klucel (hydroxypropylcellulose) (HPC)",102 % of control
CCCN1C(C)=C(C#N)C2(C(=O)Nc3ccccc32)C(C#N)=C1C,T/C,[5],99 % of control
same,T/C,[6],102 % of control
same,T/C,[7],102 % of control
Cn1c2ccccc2c(=Nc2ccc(S(N)(=O)=O)cc2)c2ccccc21,T/C,[11],97 % of control
O=C1CCC(=O)N1SC(Cl)(Cl)Cl,T/C,"dose: 6.25 mg/kg/injection, schedule: Q01DX005 (ip), vehicle: saline with Tween-80",109 % of control
same,T/C,[1],107 % of control
same,T/C,[2],100 % of control
CCO[C@H]1c2cc3c(cc2[C@@H](c2cc(OC)c(OC)c(OC)c2)[C@H]2C(=O)OC[C@@H]21)OCO3,T/C,[5],96 % of control
same,T/C,[6],112 % of control
COc1cc2c(cc1C(CC(C)O)c1cc(OC)c(OC)c(OC)c1)OCO2 (stereo not drawn),T/C,[14],100 % of control
same,T/C,[15],90 % of control
same,T/C,"dose: 240.0 mg/kg/injection, schedule: Q01DX005 (ip), vehicle: saline with Tween-80",98 % of control
COC(=O)OC(C#N)c1ccc([N+](=O)[O-])cc1 (stereo not drawn),T/C,"dose: 12.5 mg/kg/injection, schedule: Q01DX009 (ip), vehicle: saline",99 % of control and 88 % of control
same,T/C,"dose: 25.0 mg/kg/injection, schedule: Q01DX009 (ip), vehicle: saline",93 % of control and 97 % of control
same,T/C,[16],90 % of control and 97 % of control
same,T/C,"dose: 50.0 mg/kg/injection, schedule: Q01DX009 (ip), vehicle: suspension in saline",97 % of control
O=C(NO)c1coc2ccccc2c1=O,T/C,[14],101 % of control
same,T/C,[15],103 % of control
C=CCN(CC=C)P(=O)(N1CC1C)N1CC1C (stereo not drawn),T/C,"dose: 1.65 mg/kg/injection, schedule: Q01DX009 (ip), vehicle: water",166 % of control
same,T/C,"dose: 2.5 mg/kg/injection, schedule: Q01DX009 (ip), vehicle: water",157 % of control
same,T/C,"dose: 3.75 mg/kg/injection, schedule: Q01DX009 (ip), vehicle: water",118 % of control
same,T/C,[10],97 % of control
CN(C)Cc1ccc2ccccc2c1O,T/C,[16],104 % of control
same,T/C,"dose: 100.0 mg/kg/injection, schedule: Q01DX009 (ip), vehicle: saline",109 % of control
N#Cc1cn(Cc2ccccc2)c2ccccc2c1=O,T/C,[5],100 % of control
same,T/C,[6],103 % of control
same,T/C,[7],103 % of control
CC1(c2ccc(N)cc2)NC(=O)NC1=O (stereo not drawn),T/C,[8],99 % of control
same,T/C,[9],96 % of control
CC(C)CCSC1=CC(=O)c2ccccc2C1=O,T/C,"dose: 3.13 mg/kg/injection, schedule: Q01DX009 (ip), vehicle: saline with Tween-80",99 % of control
same,T/C,"dose: 6.25 mg/kg/injection, schedule: Q01DX009 (ip), vehicle: saline with Tween-80",109 % of control
same,T/C,"dose: 12.5 mg/kg/injection, schedule: Q01DX009 (ip), vehicle: saline with Tween-80",109 % of control
same,T/C,"dose: 25.0 mg/kg/injection, schedule: Q01DX009 (ip), vehicle: saline with Tween-80",114 % of control
CONC(=O)N/N=C/c1c(CO)cnc(C)c1O,T/C,[12],104 % of control
same,T/C,[13],100 % of control
same,T/C,[5],94 % of control
CCN(CC)CCN1CC(=O)N2Cc3ccccc3CN2C(=O)C1,T/C,[3],101 % of control
same,T/C,[11],104 % of control
COc1ccc(CN2CC(=O)N3Cc4ccccc4CN3C(=O)C2)cc1,T/C,[3],103 % of control
same,T/C,[11],103 % of control
same,T/C,[4],103 % of control
